Data reported in patent publication US20130072430A1, “METHODS FOR TREATMENT OR PROPHYLAXIS OF KIDNEY OR LIVER DYSFUNCTION” (NPS PHARMACEUTICALS, INC., priority 2010, published 2013).

Tested on: Human patients with short bowel syndrome
Assay: Example 2: liver biomarkers (albumin, gamma glutamyl transferase, total bilirubin, ALT, AST, ALP) in short bowel syndrome patients, every four weeks for 24 weeks
Format: in vivo
Conditions: 0.05 mg/kg/d
Experimental: To further confirm the results of Example 1, a further study was conducted involving more individuals and additional diagnostic biomarkers. Human patients with short bowel syndrome were divided into two groups: a control group (43 total individuals) to receive placebo, and an experimental group (42 total individuals) to receive teduglutide at 0.05 mg/kg/day throughout the study. Patients were treated by subcutaneous injection of placebo or the appropriate dose of teduglutide. Known biomarkers of liver function were monitored every four weeks, for 24 weeks. The liver biomarkers tested included albumin, gamma glutamyl transferase, total bilirubin, ALT and AST and ALP. Before administration of placebo or teduglutide, diagnostic biomarker levels were tested to establish a baseline for each individual.
To determine the effect of GLP-2 on the levels of the diagnostic biomarkers, the average level of each biomarker was measured for the placebo and teduglutide treated groups for each visit. Furthermore, the average change from baseline was calculated using the established baseline values. For FIGS. 17-28, p-values were calculated using the t-test.
P values are provided, which were calculated for each distribution of biomarker changes for each week using the chi-squared test.

For `CC[C@H](C)[C@H](NC(=O)[C@H](Cc1ccccc1)NC(=O)[C@H](CC(=O)O)NC(=O)[C@H](CCCNC(=N)N)NC(=O)[C@H](C)NC(=O)[C@H](C)NC(=O)[C@H](CC(C)C)NC(=O)[C@H](CC(N)=O)NC(=O)[C@H](CC(=O)O)NC(=O)[C@H](CC(C)C)NC(=O)[C@@H](NC(=O)[C@@H](NC(=O)[C@H](CC(N)=O)NC(=O)[C@H](CCSC)NC(=O)[C@H](CCC(=O)O)NC(=O)[C@H](CC(=O)O)NC(=O)[C@H](CO)NC(=O)[C@H](Cc1ccccc1)NC(=O)[C@H](CO)NC(=O)CNC(=O)[C@H](CC(=O)O)NC(=O)CNC(=O)[C@@H](N)Cc1c[nH]cn1)[C@@H](C)O)[C@@H](C)CC)C(=O)N[C@@H](CC(N)=O)C(=O)N[C@@H](Cc1c[nH]c2ccccc12)C(=O)N[C@@H](CC(C)C)C(=O)N[C@H](C(=O)N[C@@H](CCC(N)=O)C(=O)N[C@H](C(=O)N[C@@H](CCCCN)C(=O)N[C@H](C(=O)N[C@H](C(=O)N[C@@H](CC(=O)O)C(=O)O)[C@@H](C)O)[C@@H](C)CC)[C@@H](C)O)[C@@H](C)CC` [teduglutide], the “Gamma Glutamyl Transferase Change from Baseline, Median” value (Week 8, n=40) was −5.5 U/L, the “Gamma Glutamyl Transferase Observed Value, Mean” value (Week 8, n=40) was 71.5 U/L and the “Gamma Glutamyl Transferase Observed Value, Median” value (Week 8, n=40) was 46 U/L. For the same molecule, the “ALT >10% decrease from Baseline, % of subjects” value (Week 12, m=34) was “(50.0%)”, the “ALT >10% decrease from Baseline, n subjects” value (Week 12, m=34) was 17 and the “ALT >10% increase from Baseline, % of subjects” value (Week 12, m=34) was “(20.6%)”. For the same molecule, the “ALT >10% increase from Baseline, n subjects” value (Week 12, m=34) was 7, the “ALT Within 10% of Baseline, % of subjects” value (Week 12, m=34) was “(29.4%)” and the “ALT Within 10% of Baseline, n subjects” value (Week 12, m=34) was 10. The “AST >10% decrease from Baseline, % of subjects” value (Week 12, m=34) was “(61.8%)”, the “AST >10% decrease from Baseline, n subjects” value (Week 12, m=34) was 21 and the “AST >10% increase from Baseline, % of subjects” value (Week 12, m=34) was “(20.6%)”. For the same molecule, the “AST >10% increase from Baseline, n subjects” value (Week 12, m=34) was 7, the “AST Within 10% of Baseline, % of subjects” value (Week 12, m=34) was “(17.6%)” and the “AST Within 10% of Baseline, n subjects” value (Week 12, m=34) was 6. For the same molecule, the “Albumin >10% decrease from Baseline, % of subjects” value (Week 12, m=34) was “(5.9%)”, the “Albumin >10% decrease from Baseline, n subjects” value (Week 12, m=34) was 2 and the “Albumin >10% increase from Baseline, % of subjects” value (Week 12, m=34) was “(2.9%)”. The “Albumin >10% increase from Baseline, n subjects” value (Week 12, m=34) was 1, the “Albumin Within 10% of Baseline, % of subjects” value (Week 12, m=34) was “(91.2%)” and the “Albumin Within 10% of Baseline, n subjects” value (Week 12, m=34) was 31. For the same molecule, the “Alkaline Phosphatase >10% decrease from Baseline, % of subjects” value (Week 12, m=34) was “(67.6%)”, the “Alkaline Phosphatase >10% decrease from Baseline, n subjects” value (Week 12, m=34) was 23 and the “Alkaline Phosphatase >10% increase from Baseline, % of subjects” value (Week 12, m=34) was “(14.7%)”. The “Alkaline Phosphatase >10% increase from Baseline, n subjects” value (Week 12, m=34) was 5, the “Alkaline Phosphatase Within 10% of Baseline, % of subjects” value (Week 12, m=34) was “(17.6%)” and the “Alkaline Phosphatase Within 10% of Baseline, n subjects” value (Week 12, m=34) was 6. The “Bilirubin >10% decrease from Baseline, % of subjects” value (Week 12, m=34) was “(44.1%)”, the “Bilirubin >10% decrease from Baseline, n subjects” value (Week 12, m=34) was 15 and the “Bilirubin >10% increase from Baseline, % of subjects” value (Week 12, m=34) was “(26.5%)”. For the same molecule, the “Bilirubin >10% increase from Baseline, n subjects” value (Week 12, m=34) was 9, the “Bilirubin Within 10% of Baseline, % of subjects” value (Week 12, m=34) was “(29.4%)” and the “Bilirubin Within 10% of Baseline, n subjects” value (Week 12, m=34) was 10. For the same molecule, the “ALKALINE PHOSPHATASE Change from Baseline, Median” value (Week 12, n=34) was −23 U/L, the “ALT Change from Baseline, Mean” value (Week 12, n=34) was −9.8 U/L and the “ALT Change from Baseline, Median” value (Week 12, n=34) was −4 U/L. The “ALT Observed Value, Mean” value (Week 12, n=34) was 33.6 U/L, the “ALT Observed Value, Median” value (Week 12, n=34) was 27.5 U/L and the “AST Change from Baseline, Mean” value (Week 12, n=34) was −4.2 U/L. For the same molecule, the “AST Change from Baseline, Median” value (Week 12, n=34) was −5 U/L, the “AST Observed Value, Mean” value (Week 12, n=34) was 28.4 U/L and the “AST Observed Value, Median” value (Week 12, n=34) was 25 U/L. For the same molecule, the “Albumin Change from Baseline, Mean” value (Week 12, n=34) was -0.9 g/L, the “Albumin Change from Baseline, Median” value (Week 12, n=34) was -1 g/L and the “Albumin Observed Value, Mean” value (Week 12, n=34) was 41.2 g/L. For the same molecule, the “Albumin Observed Value, Median” value (Week 12, n=34) was 41 g/L, the “Alkaline Phosphatase Change from Baseline, Mean” value (Week 12, n=34) was −27.2 U/L and the “Alkaline Phosphatase Observed Value, Mean” value (Week 12, n=34) was 108.6 U/L. For the same molecule, the “Alkaline Phosphatase Observed Value, Median” value (Week 12, n=34) was 98 U/L, the “Bilirubin Change from Baseline, Mean” value (Week 12, n=34) was -1.54 µmol/L and the “Bilirubin Change from Baseline, Median” value (Week 12, n=34) was -0.05 µmol/L. The “Bilirubin Observed Value, Mean” value (Week 12, n=34) was 10.57 µmol/L, the “Bilirubin Observed Value, Median” value (Week 12, n=34) was 8.35 µmol/L and the “Gamma Glutamyl Transferase Change from Baseline, Mean” value (Week 12, n=34) was −8.1 U/L. The “Gamma Glutamyl Transferase Change from Baseline, Median” value (Week 12, n=34) was −4 U/L, the “Gamma Glutamyl Transferase Observed Value, Mean” value (Week 12, n=34) was 67.9 U/L and the “Gamma Glutamyl Transferase Observed Value, Median” value (Week 12, n=34) was 51 U/L. The “ALT >10% decrease from Baseline, % of subjects” value (Week 16, m=38) was “(52.6%)”, the “ALT >10% decrease from Baseline, n subjects” value (Week 16, m=38) was 20 and the “ALT >10% increase from Baseline, % of subjects” value (Week 16, m=38) was “(21.1%)”. The “ALT >10% increase from Baseline, n subjects” value (Week 16, m=38) was 8, the “ALT Within 10% of Baseline, % of subjects” value (Week 16, m=38) was “(26.3%)” and the “ALT Within 10% of Baseline, n subjects” value (Week 16, m=38) was 10. For the same molecule, the “AST >10% decrease from Baseline, % of subjects” value (Week 16, m=38) was “(50.0%)”, the “AST >10% decrease from Baseline, n subjects” value (Week 16, m=38) was 19 and the “AST >10% increase from Baseline, % of subjects” value (Week 16, m=38) was “(18.4%)”. For the same molecule, the “AST >10% increase from Baseline, n subjects” value (Week 16, m=38) was 7, the “AST Within 10% of Baseline, % of subjects” value (Week 16, m=38) was “(31.6%)” and the “AST Within 10% of Baseline, n subjects” value (Week 16, m=38) was 12. The “Albumin >10% decrease from Baseline, % of subjects” value (Week 16, m=38) was “(5.3%)”, the “Albumin >10% decrease from Baseline, n subjects” value (Week 16, m=38) was 2 and the “Albumin >10% increase from Baseline, n subjects” value (Week 16, m=38) was 0. The “Albumin Within 10% of Baseline, % of subjects” value (Week 16, m=38) was “(94.7%)”, the “Albumin Within 10% of Baseline, n subjects” value (Week 16, m=38) was 36 and the “Alkaline Phosphatase >10% decrease from Baseline, % of subjects” value (Week 16, m=38) was “(60.5%)”. The “Alkaline Phosphatase >10% decrease from Baseline, n subjects” value (Week 16, m=38) was 23, the “Alkaline Phosphatase >10% increase from Baseline, % of subjects” value (Week 16, m=38) was “(21.1%)” and the “Alkaline Phosphatase >10% increase from Baseline, n subjects” value (Week 16, m=38) was 8. For the same molecule, the “Alkaline Phosphatase Within 10% of Baseline, % of subjects” value (Week 16, m=38) was “(18.4%)”, the “Alkaline Phosphatase Within 10% of Baseline, n subjects” value (Week 16, m=38) was 7 and the “Bilirubin >10% decrease from Baseline, % of subjects” value (Week 16, m=38) was “(63.2%)”. For the same molecule, the “Bilirubin >10% decrease from Baseline, n subjects” value (Week 16, m=38) was 24, the “Bilirubin >10% increase from Baseline, % of subjects” value (Week 16, m=38) was “(23.7%)” and the “Bilirubin >10% increase from Baseline, n subjects” value (Week 16, m=38) was 9. For the same molecule, the “Bilirubin Within 10% of Baseline, % of subjects” value (Week 16, m=38) was “(13.2%)”, the “Bilirubin Within 10% of Baseline, n subjects” value (Week 16, m=38) was 5 and the “ALKALINE PHOSPHATASE Change from Baseline, Median” value (Week 16, n=38) was −22.5 U/L. The “ALT Change from Baseline, Mean” value (Week 16, n=38) was −8.0 U/L, the “ALT Change from Baseline, Median” value (Week 16, n=38) was −3 U/L and the “ALT Observed Value, Mean” value (Week 16, n=38) was 37.5 U/L. The “ALT Observed Value, Median” value (Week 16, n=38) was 26.5 U/L, the “AST Change from Baseline, Mean” value (Week 16, n=38) was −3.3 U/L and the “AST Change from Baseline, Median” value (Week 16, n=38) was −3 U/L. The “AST Observed Value, Mean” value (Week 16, n=38) was 29.8 U/L, the “AST Observed Value, Median” value (Week 16, n=38) was 26 U/L and the “Albumin Change from Baseline, Mean” value (Week 16, n=38) was -0.7 g/L. The “Albumin Change from Baseline, Median” value (Week 16, n=38) was -0.5 g/L, the “Albumin Observed Value, Mean” value (Week 16, n=38) was 41.7 g/L and the “Albumin Observed Value, Median” value (Week 16, n=38) was 42 g/L. For the same molecule, the “Alkaline Phosphatase Change from Baseline, Mean” value (Week 16, n=38) was −24.5 U/L, the “Alkaline Phosphatase Observed Value, Mean” value (Week 16, n=38) was 114.2 U/L and the “Alkaline Phosphatase Observed Value, Median” value (Week 16, n=38) was 102 U/L. The “Bilirubin Change from Baseline, Mean” value (Week 16, n=38) was -3.41 µmol/L, the “Bilirubin Change from Baseline, Median” value (Week 16, n=38) was -1.75 µmol/L and the “Bilirubin Observed Value, Mean” value (Week 16, n=38) was 9.40 µmol/L. For the same molecule, the “Bilirubin Observed Value, Median” value (Week 16, n=38) was 8.1 µmol/L, the “Gamma Glutamyl Transferase Change from Baseline, Mean” value (Week 16, n=38) was −7.0 U/L and the “Gamma Glutamyl Transferase Change from Baseline, Median” value (Week 16, n=38) was −5.5 U/L.
